In patent US11498909B2, “Compound acting as antibiotics” (KBP BIOSCIENCES CO., LTD., priority 2018, dated 2022):
In brackets after ≈: the same amount, converted by molar mass. Where two headings read alike, the source gives them in different places.

How the values were obtained:
Pseudomonas aeruginosa = test: In vitro antibacterial activity, agar dilution MIC (Experiment 1); format: cell-based; conditions: agar dilution (Table 3)
Method: Tested strains: all the clinically separated strains below were purchased from public facilities.
Escherichia coli ATCC25922, Pseudomonas aeruginosa ATCC27853, Klebsiella pneumoniae ATCC700603, and the like.
Tested Samples: Imipenem, Ceftazidime: Commercial Products, the Following Experiments were Carried Out According to the Content of an Effective Ingredient in Each Commercial Product;
The compounds of the present invention, their chemical names, and preparation methods are shown in the preparation example of each compound.
Experiment method: Agar dilution method, refer to National Committee for Clinical Laboratory Standards. 2006. Methods for Dilution Antimicrobial Susceptibility Tests for Bacteria That Grow Aerobically; Approved Standard—Seventh Edition M7-A7, Vol 26, No. 2, 2006, to determine the MIC of the compound. MIC represents the minimum inhibitory concentration.

[1] = Pharmacokinetics (PK) determination in SD rats (Experiment 4); format: in vivo; conditions: plasma; for Cl_obs / Vz_obs / t1/2z / λ_z / AUCINF_obs / AUClast: IV 2 mg/kg; for AUC(0-t) / AUC(0-inf): Sprague-Dawley (SD), rat, iv; for AUC(0-inf): read-out: AUCINF_obs
Method: The compound of the present invention, self-prepared and dissolved in a suitable solvent.
Instrument and equipment: API4000 LC-MS/MS
Chromatographic column: Waters XBridge C18(2.1×50 mm, […])
Rat blood collection: Animals were fixed. The animal's tail was heated with a water bathtub 10 minutes before each time point. About 200 μL of the blood was collected through the caudal vein. After the blood collection, the blood was placed in an anticoagulation tube containing heparin sodium. The blood samples were centrifuged at 8000 rpm for 6 minutes at 4° C. to obtain plasma samples. The plasma must be prepared within 30 minutes after the blood collection. The plasma was stored in a refrigerator at −80° C. before the test.
(1) Test samples were removed from the refrigerator (−80° C.), naturally thawed at room temperature, and then vortexed for 5 minutes;
(2) 20 μL sample was precisely pipetted to a 1.5 mL centrifuge tube;
(3) 200 μL of the internal standard solution was added;
(4) The mixture was vortexed for 5 minutes and centrifuged for 5 minutes (12000 revolutions per minute);
(5) 100 μL of the supernate was precisely pipetted, 100 μL of water was added, the mixture was vortexed for 5 minutes, and the sample was sent to LC-MS/MS for analysis.
The results of the concentrations of the test samples (plasma samples) were output with Analyst 1.6.1 of AB Corporation. The meaning value, the standard deviation, the coefficient of variation, and other parameters (not necessary to calculate the parameter that can be directly output from Analyst 1.6.1) were calculated with Microsoft Excel, and the PK parameter is calculated with Pharsight Phoenix 6.1 software.

Row | SMILES | MIC50 (Pseudomonas aeruginosa; read-out: MIC50) | MIC90 (Pseudomonas aeruginosa; read-out: MIC90) | Cl_obs [1] | Vz_obs [1] | t1/2z [1] | λ_z [1] | AUC(0-t) ([1]; 2 mg/kg) | AUC(0-inf) ([1]; 2 mg/kg) | other results
1 | C[C@@H](O)[C@H](NC(=O)c1ccc(C#CC#Cc2ccc(CN3CCOCC3)s2)cc1)C(=O)NO [Compound 43, N-((2S,3R)-3-hydroxy-1-(hydroxyamino)-1-oxobutan-2-yl)-4-((5-(morpholinomethyl)thienyl-2-yl)buta-1,3-diynyl)benzamide] | 1 µg/mL (≈ 2.14 µM) | 4 µg/mL (≈ 8.56 µM) | 36.5 ± 3.67 mL/min/kg | 0.88 ± 0.07 L/kg | 16.8 ± 0.6 min | 2.48 ± 0.06 h⁻¹ | 919 ± 100 ng·h/mL | 921 ± 100 ng·h/mL | 
2 | C[C@@H](O)[C@H](NC(=O)c1ccc(/C=C/C=C/c2ccco2)cc1)C(=O)NO [Compound 1, 4-((1E,3E)-4-(furan-2-yl)buta-1,3-dienyl)-N-((2S,3R)-3-hydroxy-1-(hydroxyamino)-1-oxobutan-2-yl)benzamide] | 1 µg/mL (≈ 2.81 µM) | > 16 µg/mL |  |  |  |  |  |  | 
3 | C[C@@H](O)[C@H](NC(=O)c1ccc(C#CC#Cc2ccc(C(=O)N(C)C)o2)cc1)C(=O)NO [Compound 29] | 1 µg/mL (≈ 2.36 µM) | 4 µg/mL (≈ 9.45 µM) |  |  |  |  |  |  | 
4 | C[C@@H](O)[C@H](NC(=O)c1ccc(C#CC#Cc2ccco2)cc1)C(=O)NO [Compound 20] |  |  | 107 ± 16 mL/min/kg | 3.77 ± 0.53 L/kg | 24.6 ± 0.6 min | 1.70 ± 0.03 h⁻¹ |  |  | MIC50 (Pseudomonas aeruginosa): 0.25 µg/mL (≈ 0.71 µM); MIC90 (Pseudomonas aeruginosa): 1 µg/mL (≈ 2.84 µM); AUCINF_obs [1]: 791 ± 117 ng·h/mL; AUClast [1]: 778 ± 116 ng·h/mL
5 | C[C@@H](O)[C@H](NC(=O)c1ccc(C#CC#Cc2ccc(COCCOCCO)o2)cc1)C(=O)NO [Compound 21, N-((2S,3R)-3-hydroxy-1-(hydroxyamino)-1-oxobutan-2-yl)-4-((5-((2-(2-hydroxyethoxy)ethoxy)methyl)furan-2-yl)buta-1,3-diynyl)benzamide] | 1 µg/mL (≈ 2.13 µM) | 4 µg/mL (≈ 8.5 µM) | 24.2 ± 4.83 mL/min/kg | 0.33 ± 0.07 L/kg | 9.6 ± 0.6 min | 4.38 ± 0.25 h⁻¹ | 1400 ± 256 ng·h/mL | 1420 ± 255 ng·h/mL | 
6 | C[C@@H](O)[C@H](NC(=O)c1ccc(C#CC#Cc2ccc(CN3CCN(C)CC3)o2)cc1)C(=O)NO [Compound 13, N-((2S,3R)-3-hydroxy-1-(hydroxyamino)-1-oxobutan-2-yl)-4-((5-((4-methylpiperazin-1-yl)methyl)furan-2-yl)buta-1,3-diynyl)benzamide] | 2 µg/mL (≈ 4.31 µM) | 8 µg/mL (≈ 17.2 µM) | 69 ± 11.7 mL/min/kg | 2.09 ± 0.39 L/kg | 21 ± 0.6 min | 1.98 ± 0.04 h⁻¹ | 485 ± 87.4 ng·h/mL | 493 ± 87.9 ng·h/mL | 
7 | C[C@@H](O)[C@H](NC(=O)c1ccc(C(=O)N/N=C/c2ccco2)cc1)C(=O)NO [Compound 26, 4-(2-(furan-2-methylene)hydrazinecarbonyl)-N-((2S,3R)-3-hydroxy-1-(hydroxyamino)-1-oxobutan-2-yl)-benzamide] |  | 4 µg/mL (≈ 10.7 µM) |  |  |  |  |  |  | 
8 | C[C@H](O)[C@H](NC(=O)c1ccc(C#CC#Cc2ccc(CO)o2)cc1)C(=O)NO [Compound 10, N-((2S,3S)-3-hydroxy-1-(hydroxyamino)-1-oxobutan-2-yl)-4-((5-(hydroxymethyl)furan-2-yl)buta-1,3-diynyl)benzamide] |  |  |  |  |  |  |  |  | MIC50 (Pseudomonas aeruginosa): 0.125 µg/mL (≈ 0.327 µM); MIC90 (Pseudomonas aeruginosa): 1 µg/mL (≈ 2.62 µM); AUCINF_obs ([1]; 2 mg/kg): 4902 ± 532 ng·h/mL; AUClast ([1]; 2 mg/kg): 4891 ± 533 ng·h/mL; Cl_obs ([1]; 2 mg/kg): 17.2 ± 1.83 mL/min/kg; Vz_obs ([1]; 2 mg/kg): 1.03 ± 0.11 L/kg; t1/2z ([1]; 2 mg/kg): 44.4 ± 9.6 min; λ_z ([1]; 2 mg/kg): 0.97 ± 0.23 h⁻¹
9 | C[C@@H](O)[C@H](NC(=O)c1ccc(/C=C/C=C/c2ccc(CO)o2)cc1)C(=O)NO [Compound 3, N-((2S,3R)-3-hydroxy-1-(hydroxamino)-1-oxobutan-2-yl)-4-((1E,3E)-4-(5-(hydroxymethyl)furan-2-yl)buta-1,3-dienyl)benzamide] | 2 µg/mL (≈ 5.18 µM) | 16 µg/mL (≈ 41.4 µM) |  |  |  |  |  |  | 

The next lines start with results.

Row | MIC50 (Pseudomonas aeruginosa; read-out: MIC50) | MIC90 (Pseudomonas aeruginosa; read-out: MIC90) | Cl_obs [1] | Vz_obs [1] | t1/2z [1] | λ_z [1] | AUC(0-t) ([1]; 2 mg/kg) | AUC(0-inf) ([1]; 2 mg/kg) | SMILES | other results
10 | 0.5 µg/mL (≈ 1.26 µM) | 2 µg/mL (≈ 5.06 µM) | 25.2 ± 4.5 mL/min/kg | 1.57 ± 0.28 L/kg | 44.4 ± 13.2 min | 0.99 ± 0.29 h⁻¹ | 1330 ± 108 ng·h/mL | 1350 ± 222 ng·h/mL | CNCc1ccc(C#CC#Cc2ccc(C(=O)N[C@H](C(=O)NO)[C@@H](C)O)cc2)o1 [Compound 15, N-((2S,3R)-3-hydroxy-1-(hydroxyamino)-1-oxobutan-2-yl)-4-((5-((methylamino)methyl)furan-2-yl)buta-1,3-diynyl)benzamide] | 
11 | 0.5 µg/mL (≈ 1.26 µM) | 2 µg/mL (≈ 5.05 µM) | 12 ± 0.67 mL/min/kg | 0.47 ± 0.16 L/kg | 27 ± 8.4 min | 1.67 ± 0.58 h⁻¹ | 2780 ± 130 ng·h/mL | 2790 ± 136 ng·h/mL | Cc1cc(C#CC#Cc2ccc(C(=O)N[C@H](C(=O)NO)[C@@H](C)O)cc2)oc1CO [Compound 16, N-((2S,3R)-3-hydroxy-1-(hydroxyamino)-1-oxobutan-2-yl)-4-((5-(hydroxymethyl)-4-methylfuran-2-yl)buta-1,3-diynyl)benzamide] | 
12 | 2 µg/mL (≈ 4.01 µM) |  |  |  |  |  |  |  | COCc1ccc(C#Cc2ccc(-c3ccn(CCC(C)(C(=O)NO)S(C)(=O)=O)c(=O)c3)cc2)o1 (centres unmarked) [Compound 48] | 
13 | 1 µg/mL (≈ 2.17 µM) |  | 78.5 ± 5.5 mL/min/kg | 17.6 ± 4.22 L/kg | 158 ± 45.6 min | 0.28 ± 0.08 h⁻¹ | 402 ± 21.6 ng·h/mL | 426 ± 28.5 ng·h/mL | Cn1nc(CO)cc1-c1ccc(C#Cc2ccc(C(=O)N[C@H](C(=O)NO)C(C)(C)N)cc2)cc1 [Compound 37, (S)—N-(3-amino-1-(hydroxyamino)-3-methyl-1-oxobutan-2-yl)-4-((4-(3-(hydroxymethyl)-1-methyl-1H-pyrazol-5-yl)phenyl)ethynyl)benzamide] | 
14 | 0.5 µg/mL (≈ 1.03 µM) | 4 µg/mL (≈ 8.24 µM) | 84.3 ± 9.17 mL/min/kg | 2.16 ± 0.30 L/kg | 18 ± 0.6 min | 2.35 ± 0.07 h⁻¹ | 396 ± 41 ng·h/mL | 398 ± 41 ng·h/mL | C[C@@H](O)[C@H](NC(=O)c1ccc(C#CC#Cc2ccc(CNCCOCCO)s2)cc1)C(=O)NO [Compound 42, N-((2S,3R)-3-hydroxy-1-(hydroxyamino)-1-oxobutan-2-yl)-4-((5-((2-(2-hydroxyethoxy)ethylamino)methyl)thienyl-2-yl)buta-1,3-diynyl)benzamide] | 
15 | 4 µg/mL (≈ 7.87 µM) | > 16 µg/mL |  |  |  |  |  |  | CC(CCn1ccc(-c2ccc(C#CC#Cc3ccc(CO)o3)cc2)cc1=O)(C(=O)NO)S(C)(=O)=O (centres unmarked) [Compound 47] | 
16 | 1 µg/mL (≈ 2.81 µM) | > 16 µg/mL |  |  |  |  |  |  | CC(O)C(NC(=O)c1ccc(/C=C/C=C/c2ccco2)cc1)C(=O)NO (racemic) [Compound 25] | 
17 | 2 µg/mL (≈ 4.77 µM) | 1 µg/mL (≈ 2.38 µM) |  |  |  |  |  |  | C[C@@H](O)[C@H](NC(=O)c1ccc(C#Cc2ccc(-c3ccnn3C)nc2)cc1)C(=O)NO [Compound 40, N-((2S,3R)-3-hydroxy-1-(hydroxyamino)-1-oxobutan-2-yl)-4-((6-(1-methyl-1H-pyrazol-5-yl)pyridin-3-yl)ethynyl)benzamide] | 
18 |  | 4 µg/mL (≈ 10.1 µM) |  |  |  |  |  |  | C[C@@H](O)[C@H](NC(=O)c1ccc(C#CC#Cc2ccc(C(N)=O)o2)cc1)C(=O)NO [Compound 27] | 
